Key:
[1] = molecular target: JH2 domain of human Tyk2 (Homo sapiens (Human), UniProt P29597); experiment: JH2 Biochemical Assay (TR-FRET probe displacement); assay type: binding; conditions: TR-FRET probe displacement, JH2 domain
[2] = molecular target: Tyk2 (Homo sapiens (Human), UniProt P29597); experiment: pSTAT4 Cell Assay (MSD, NK92 cells); assay type: cell-based
Sequence of Tyk2 (P29597 whole entry): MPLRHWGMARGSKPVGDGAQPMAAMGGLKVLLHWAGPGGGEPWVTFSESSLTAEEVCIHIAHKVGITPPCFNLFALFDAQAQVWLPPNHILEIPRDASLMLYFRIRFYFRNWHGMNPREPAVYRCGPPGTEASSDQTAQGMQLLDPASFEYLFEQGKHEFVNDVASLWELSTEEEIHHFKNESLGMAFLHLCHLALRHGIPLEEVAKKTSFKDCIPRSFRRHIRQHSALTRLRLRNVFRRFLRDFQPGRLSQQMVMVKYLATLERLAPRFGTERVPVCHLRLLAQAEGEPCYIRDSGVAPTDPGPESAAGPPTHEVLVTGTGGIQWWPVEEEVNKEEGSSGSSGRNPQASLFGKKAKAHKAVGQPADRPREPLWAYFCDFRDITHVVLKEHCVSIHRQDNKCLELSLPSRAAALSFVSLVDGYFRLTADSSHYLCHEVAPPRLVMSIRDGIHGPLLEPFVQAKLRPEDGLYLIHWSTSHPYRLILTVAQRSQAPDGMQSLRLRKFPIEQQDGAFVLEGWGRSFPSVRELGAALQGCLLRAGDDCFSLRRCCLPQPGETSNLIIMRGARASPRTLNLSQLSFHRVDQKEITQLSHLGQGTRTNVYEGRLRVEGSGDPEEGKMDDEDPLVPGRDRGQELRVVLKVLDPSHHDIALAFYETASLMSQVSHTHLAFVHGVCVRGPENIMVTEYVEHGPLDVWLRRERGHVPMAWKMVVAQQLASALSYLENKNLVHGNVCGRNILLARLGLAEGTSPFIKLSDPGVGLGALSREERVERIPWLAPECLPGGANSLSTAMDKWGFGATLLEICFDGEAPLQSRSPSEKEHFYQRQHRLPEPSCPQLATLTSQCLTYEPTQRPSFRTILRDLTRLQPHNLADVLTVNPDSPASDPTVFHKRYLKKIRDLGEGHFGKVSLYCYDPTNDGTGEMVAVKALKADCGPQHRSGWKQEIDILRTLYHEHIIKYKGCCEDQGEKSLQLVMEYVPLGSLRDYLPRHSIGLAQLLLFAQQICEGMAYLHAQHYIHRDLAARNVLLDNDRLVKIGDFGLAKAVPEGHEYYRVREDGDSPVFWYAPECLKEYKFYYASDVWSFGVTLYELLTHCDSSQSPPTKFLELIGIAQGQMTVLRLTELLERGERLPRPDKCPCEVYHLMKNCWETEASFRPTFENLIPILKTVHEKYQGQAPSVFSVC

Sequence of JH2 domain of human Tyk2 (P29597 575-876): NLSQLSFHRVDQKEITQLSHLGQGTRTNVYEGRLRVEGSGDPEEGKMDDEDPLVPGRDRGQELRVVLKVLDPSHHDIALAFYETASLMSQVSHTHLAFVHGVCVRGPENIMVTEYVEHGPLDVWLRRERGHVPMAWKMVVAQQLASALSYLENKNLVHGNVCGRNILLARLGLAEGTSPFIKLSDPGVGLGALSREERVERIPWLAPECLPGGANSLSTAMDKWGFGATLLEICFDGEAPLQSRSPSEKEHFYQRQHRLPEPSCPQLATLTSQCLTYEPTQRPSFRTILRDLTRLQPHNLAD

Work on `CC(=O)Nc1cc(Nc2cc(C)nc(C(C)(F)F)n2)c(-c2cn3c(n2)CCC3)cn1` [Example 769, N-(4-((2-(1,1-difluoroethyl)-6-methylpyrimidin-4-yl)amino)-5-(6,7-dihydrO5H-pyrrolo[1,2-a]imidazol-2-yl)pyridin-2-yl)acetamide] yielded an IC50 [1] of no more than 10 nM and an IC50 [2] of no more than 10 nM.
Molecule `CC(=O)Nc1cc(Nc2cc(C)nc(C(C)(F)F)n2)c(-c2cn3c(n2)OCC3)cn1` [Example 770, N-(4-((2-(1,1-difluoroethyl)-6-methylpyrimidin-4-yl)amino)-5-(2,3-dihydroimidazo[2,1-b]oxazol-6-yl)pyridin-2-yl)acetamide] has an IC50 [1] of no more than 10 nM and an IC50 [2] of no more than 10 nM.
With `CC(=O)Nc1cc(Nc2cc(C)nc(C(C)(F)F)n2)c(-c2csc(N3CCN(C)CC3)n2)cn1` [Example 771, N-(4-((2-(1,1-difluoroethyl)-6-methylpyrimidin-4-yl)amino)-5-(2-(4-methylpiperazin-1-yl)thiazol-4-yl)pyridin-2-yl)acetamide] the IC50 [1] was no more than 10 nM and the IC50 [2] was no more than 10 nM.
`COCCN(C)c1nc(-c2cnc(NC(C)=O)cc2Nc2cc(C)nc(C(C)(F)F)n2)cs1` [Example 772, N-(4-((2-(1,1-difluoroethyl)-6-methylpyrimidin-4-yl)amino)-5-(2-((2-methoxyethyl)(methyl)amino)thiazol-4-yl)pyridin-2-yl)acetamide] was tested, and the IC50 [1] was no more than 10 nM and the IC50 [2] was no more than 10 nM.
In the case of `COCCN(C)c1nnc(-c2cnc(NC(C)=O)cc2Nc2ccnc(C(C)(F)F)n2)s1` [Example 773, N-(4-((2-(1,1-difluoroethyl)pyrimidin-4-yl)amino)-5-(5-((2-methoxyethyl)(methyl)amino)-1,3,4-thiadiazol-2-yl)pyridin-2-yl)acetamide], the IC50 [1] is reported as no more than 10 nM and the IC50 [2] is reported as no more than 10 nM.
`CC(=O)Nc1cc(Nc2ccnc(C(C)(F)F)n2)c(-c2nnc(N3CCN(C)CC3)s2)cn1` [Example 774, N-(4-((2-(1,1-difluoroethyl)pyrimidin-4-yl)amino)-5-(5-(4-methylpiperazin-1-yl)-1,3,4-thiadiazol-2-yl)pyridin-2-yl)acetamide] was tested, and the IC50 [1] was no more than 10 nM and the IC50 [2] was no more than 10 nM.
In the case of `COCCOc1ccnc(-c2cnc(NC(C)=O)cc2Nc2cc(C)nc(C(C)(F)F)n2)n1` [Example 777, N-(4-((2-(1,1-difluoroethyl)-6-methylpyrimidin-4-yl)amino)-5-(4-(2-methoxyethoxy)pyrimidin-2-yl)pyridin-2-yl)acetamide], the IC50 [1] is reported as 10 to 100 nM and the IC50 [2] is reported as no less than 1000 nM.
Molecule `CC(=O)Nc1cc(Nc2ccnc(C(C)(F)F)n2)c(-c2cnn(CCN3CCOCC3)n2)cn1` [Example 778, N-(4-((2-(1,1-difluoroethyl)pyrimidin-4-yl)amino)-5-(2-(2-morpholinoethyl)-2H-1,2,3-triazol-4-yl)pyridin-2-yl)acetamide] has an IC50 [1] of no more than 10 nM and an IC50 [2] of 10 to 100 nM.
Molecule `CC(=O)Nc1cc(Nc2ccnc(C(C)(F)F)n2)c(-c2cnn(CCN3CCN(C)CC3)n2)cn1` [Example 779, N-(4-((2-(1,1-difluoroethyl)pyrimidin-4-yl)amino)-5-(2-(2-(4-methylpiperazin-1-yl)ethyl)-2H-1,2,3-triazol-4-yl)pyridin-2-yl)acetamide] has an IC50 [1] of no more than 10 nM and an IC50 [2] of 10 to 100 nM.
Molecule `COCc1cnc(-c2cnc(NC(C)=O)cc2Nc2ccnc(C(C)(F)F)n2)s1` [Example 781, N-(4-((2-(1,1-difluoroethyl)pyrimidin-4-yl)amino)-5-(5-(methoxymethyl)thiazol-2-yl)pyridin-2-yl)acetamide] has an IC50 [1] of no more than 10 nM and an IC50 [2] of no more than 10 nM.
Work on `CC(=O)Nc1cc(Nc2ccnc(C(C)(F)F)n2)c(-c2ncc(CN(C)C)s2)cn1` [Example 782, N-(4-((2-(1,1-difluoroethyl)pyrimidin-4-yl)amino)-5-(5-((dimethylamino)methyl)thiazol-2-yl)pyridin-2-yl)acetamide] yielded an IC50 [1] of no more than 10 nM and an IC50 [2] of no more than 10 nM.
`CC(=O)Nc1cc(Nc2cc(C)nc(C(C)(F)F)n2)c(-c2ncc(CN3CCN(C)CC3)s2)cn1` [Example 783, N-(4-((2-(1,1-difluoroethyl)-6-methylpyrimidin-4-yl)amino)-5-(5-((4-methylpiperazin-1-yl)methyl)thiazol-2-yl)pyridin-2-yl)acetamide] was tested, and the IC50 [1] was no more than 10 nM and the IC50 [2] was no more than 10 nM.
In the case of `CC(=O)Nc1cc(Nc2cc(C)nc(C(C)(F)F)n2)c(-c2nc(CN(C)C)cs2)cn1` [Example 784, N-(4-((2-(1,1-difluoroethyl)-6-methylpyrimidin-4-yl)amino)-5-(4-((dimethylamino)methyl)thiazol-2-yl)pyridin-2-yl)acetamide], the IC50 [1] is reported as no more than 10 nM and the IC50 [2] is reported as no more than 10 nM.
`CC(=O)Nc1cc(Nc2cc(C)nc(C(C)(F)F)n2)c(-c2csc(CN(C)C)n2)cn1` [Example 786, N-(4-((2-(1,1-difluoroethyl)-6-methylpyrimidin-4-yl)amino)-5-(2-((dimethylamino)methyl)thiazol-4-yl)pyridin-2-yl)acetamide] gave an IC50 [1] of no more than 10 nM and an IC50 [2] of no more than 10 nM.
With `CC(=O)Nc1cc(Nc2cc(C)nc(C(C)(F)F)n2)c(-c2csc(CN3CCN(C)CC3)n2)cn1` [Example 787, N-(4-((2-(1,1-difluoroethyl)-6-methylpyrimidin-4-yl)amino)-5-(2-((4-methylpiperazin-1-yl)methyl)thiazol-4-yl)pyridin-2-yl)acetamide] the IC50 [1] was no more than 10 nM and the IC50 [2] was no more than 10 nM.
`CC(=O)Nc1cc(Nc2ccnc(C(C)(F)F)n2)c(-c2csc(N3CC4(COC4)C3)n2)cn1` [Example 789, N-(5-(2-(2-oxa-6-azaspiro[3.3]heptan-6-yl)thiazol-4-yl)-4-((2-(1,1-difluoroethyl)pyrimidin-4-yl)amino)pyridin-2-yl)acetamide] showed an IC50 [1] of no more than 10 nM and an IC50 [2] of no more than 10 nM.
Work on `CC(=O)Nc1cc(Nc2ccnc(C(C)(F)F)n2)c(-c2csc(C#N)n2)cn1` [Example 790, N-(5-(2-cyanothiazol-4-yl)-4-((2-(1,1-difluoroethyl)pyrimidin-4-yl)amino)pyridin-2-yl)acetamide] yielded an IC50 [1] of no more than 10 nM and an IC50 [2] of no more than 10 nM.
Molecule `CC(=O)Nc1cc(Nc2cc(C)nc(C(C)(F)F)n2)c(-c2cnc(CN3CCCC3)cn2)cn1` [Example 791, N-(4-((2-(1,1-difluoroethyl)-6-methylpyrimidin-4-yl)amino)-5-(5-(pyrrolidin-1-ylmethyl)pyrazin-2-yl)pyridin-2-yl)acetamide] has an IC50 [1] of no more than 10 nM and an IC50 [2] of no more than 10 nM.
`CC(=O)Nc1cc(Nc2cc(C)nc(C(C)(F)F)n2)c(-c2cnc(CN3CCN(C)CC3)cn2)cn1` [Example 792, N-(4-((2-(1,1-difluoroethyl)-6-methylpyrimidin-4-yl)amino)-5-(5-((4-methylpiperazin-1-yl)methyl)pyrazin-2-yl)pyridin-2-yl)acetamide] was tested, and the IC50 [1] was no more than 10 nM and the IC50 [2] was 10 to 100 nM.
`CC(=O)Nc1cc(Nc2cc(C)nc(C(C)(F)F)n2)c(-c2cnc(CN3CCOCC3)cn2)cn1` [Example 793, N-(4-((2-(1,1-difluoroethyl)-6-methylpyrimidin-4-yl)amino)-5-(5-(morpholinomethyl)pyrazin-2-yl)pyridin-2-yl)acetamide] was tested, and the IC50 [1] was no more than 10 nM and the IC50 [2] was no more than 10 nM.
`CNC(=O)Nc1cc(Nc2ccnc(C(C)(F)F)n2)c(-c2cc3n(n2)CCN(C)C3)cn1` [Example 794, 1-(4-((2-(1,1-difluoroethyl)pyrimidin-4-yl)amino)-5-(5-methyl-4,5,6,7-tetrahydropyrazolo[1,5-a]pyrazin-2-yl)pyridin-2-yl)-3-methylurea] showed an IC50 [1] of no more than 10 nM and an IC50 [2] of no more than 10 nM.

— patent US20260028365A1 (BIOGEN MA INC., priority 2022, published 2026)
